These results are taken from ChEMBL document CHEMBL1201862, “PubChem BioAssay data set” (2004).

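All cell lines were grown in 96-well plates and treated with compound for 48 hours. GI50 = concentration required for 50% inhibition of growth.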 Active and inactive are the calls of the source. Cut-off read from the data, not from the text of the source: active = GI50 up to about 1.1 µM and inactive = higher. Bounds are passed on as bounds.

Among the test systems are SNB-19; PC-3; SW-620; LOX IMVI; UACC-257; IGROV-1; HOP-92; UO-31; OVCAR-3; RXF 393; SK-MEL-5; MCF7; MDA-MB-231; CCRF-CEM; OVCAR-5; SN12C; SNB-75; SK-MEL-2; KM12; A498.
Experiment in all cases: NCI anticancer screen, dose series, 48 h

In the case of `NS(=O)(=O)c1ccc(NC(NC(=O)C(C(F)(F)F)C(F)(F)F)(C(F)(F)F)C(F)(F)F)cc1`, the GI50 in the assay on SNB-19, in the assay with PC-3, with SW-620, in the assay with LOX IMVI, in the assay with UACC-257 and in the assay with IGROV-1 was > 100 µM (inactive) in each case. The GI50 in the assay on HOP-92, in the assay with UO-31, in the assay with OVCAR-3, with RXF 393, with SK-MEL-5 and with MCF7 was > 100 µM (inactive) throughout. Besides, the GI50 in the assay with MDA-MB-231, in the assay on CCRF-CEM, in the assay on OVCAR-5, in the assay on SN12C, in the assay on SNB-75 and in the assay with SK-MEL-2 was > 100 µM (inactive) in each case. Besides, in the assay with KM12, the GI50 is > 100 µM (inactive).

`O=c1c2sc3ccccc3sc=2c(=O)c2c(Cl)c(Cl)c(Cl)c(Cl)c12`: the GI50 in the assay on SNB-19, in the assay on PC-3, in the assay with SW-620, in the assay with UACC-257, in the assay with IGROV-1 and in the assay on UO-31 was > 100 µM (inactive) in each case. Moreover, the GI50 in the assay with A498, with OVCAR-3, in the assay on RXF 393, in the assay with SK-MEL-5, in the assay with MCF7 and with MDA-MB-231 was > 100 µM (inactive) in each case. For the same compound, the GI50 in the assay with CCRF-CEM, with OVCAR-5, in the assay with SN12C, in the assay with SNB-75, in the assay on SK-MEL-2 and with KM12 was > 100 µM (inactive) in each case.

`COC(=O)C1=C(C(=O)OC)C(Cc2ccccc2)(OO)OC1=O` (stereo unspecified): the GI50 in the assay with SNB-19 was 22 µM (inactive); with PC-3, 13.1 µM (inactive); in the assay on SW-620 it was 2.83 µM (inactive); in the assay with LOX IMVI it was 3.59 µM (inactive); in the assay with UACC-257 it was 4.38 µM (inactive); with IGROV-1, 4.65 µM (inactive). For the same compound, the GI50 in the assay with HOP-92 is 5.94 µM (inactive); with UO-31, 5.18 µM (inactive); with OVCAR-3, 4.33 µM (inactive); in the assay on RXF 393, 4.94 µM (inactive); with SK-MEL-5, 4.26 µM (inactive); in the assay with MCF7 it was 3.78 µM (inactive). Moreover, the GI50 with MDA-MB-231 was 28.2 µM (inactive); in the assay with CCRF-CEM, 1.04 µM (active); in the assay with OVCAR-5 it was 18.8 µM (inactive); with SN12C, 4.22 µM (inactive); in the assay with SNB-75, 9.33 µM (inactive); in the assay on SK-MEL-2, 5.65 µM (inactive). The GI50 in the assay on KM12 is 19.1 µM (inactive).

As to `COc1cc2oc(=O)cc(C)c2c(OC)c1OC(C)=O`, the GI50 with SNB-19, in the assay with PC-3, in the assay on SW-620, in the assay with LOX IMVI, in the assay with UACC-257 and with IGROV-1 was > 100 µM (inactive) throughout. Besides, the GI50 in the assay on UO-31, in the assay on A498, with OVCAR-3, in the assay on SK-MEL-5, with MCF7 and with MDA-MB-231 was > 100 µM (inactive) each time. In addition, the GI50 in the assay with CCRF-CEM, in the assay on OVCAR-5, in the assay with SN12C, with SNB-75, in the assay with SK-MEL-2 and in the assay with KM12 was > 100 µM (inactive) throughout.

For the compound `CCOC(=O)C1(C/C=C/CBr)Cc2ccccc2C1=O` (stereo unspecified), the GI50 in the assay on SNB-19 is 5.45 µM (inactive); with PC-3, 4.13 µM (inactive); in the assay with SW-620, 2.58 µM (inactive); with LOX IMVI it was 1.6 µM (inactive); in the assay on UACC-257, 8.17 µM (inactive); with IGROV-1, 2.7 µM (inactive). The GI50 with UO-31 is 1.96 µM (inactive); in the assay with A498 it was 17.9 µM (inactive); with OVCAR-3 it was 2.17 µM (inactive); with RXF 393 it was 1.55 µM (inactive); with SK-MEL-5, 2.67 µM (inactive); in the assay on MCF7 it was 2.48 µM (inactive). Also, the GI50 with MDA-MB-231 is 4.7 µM (inactive); in the assay on CCRF-CEM it was 0.796 µM (active); in the assay with OVCAR-5, 3.02 µM (inactive); in the assay with SN12C, 1.99 µM (inactive); in the assay with SNB-75, 5.86 µM (inactive); in the assay on SK-MEL-2 it was 2.25 µM (inactive). Besides, in the assay on KM12, the GI50 is 3.07 µM (inactive).

On to `COC(=O)C1C2CCCN2OC1(C)CO` (stereo unspecified), for which the GI50 in the assay on SNB-19, in the assay on PC-3, in the assay with SW-620, in the assay with LOX IMVI, with UACC-257 and in the assay with IGROV-1 was > 100 µM (inactive) throughout. Besides, the GI50 with UO-31, with A498, in the assay with OVCAR-3, with SK-MEL-5, with MCF7 and in the assay with MDA-MB-231 was > 100 µM (inactive) in each case. For the same compound, the GI50 in the assay on CCRF-CEM, in the assay with OVCAR-5, with SN12C, in the assay on SNB-75, with SK-MEL-2 and in the assay with KM12 was > 100 µM (inactive) throughout.

On to `COC(=O)c1c(O)ccc2[nH]c3c(O)c4ccccc4cc3c12`, for which the GI50 with SNB-19 is 41.7 µM (inactive); in the assay with PC-3, 30.4 µM (inactive); with UACC-257, 34.1 µM (inactive); in the assay with IGROV-1, 16.7 µM (inactive); in the assay with HOP-92 it was 29.6 µM (inactive); in the assay with UO-31 it was 26.8 µM (inactive). Further, the GI50 in the assay with A498 is 41.4 µM (inactive); in the assay on OVCAR-3, 15.9 µM (inactive); in the assay with RXF 393, 31.3 µM (inactive); in the assay with SK-MEL-5, 24 µM (inactive); in the assay on MCF7 it was 16 µM (inactive); in the assay with MDA-MB-231 it was 75 µM (inactive). The GI50 in the assay on CCRF-CEM was 20.8 µM (inactive); in the assay with OVCAR-5 it was 76.9 µM (inactive); in the assay on SN12C, 43.6 µM (inactive); in the assay with SK-MEL-2, 32.4 µM (inactive); with KM12 it was 16 µM (inactive).

On to `CC1C2CC(CC2N)C1(C)C` (stereo unspecified), for which the GI50 in the assay on SNB-19, in the assay with PC-3, in the assay with SW-620, in the assay with UACC-257, in the assay with IGROV-1 and in the assay with HOP-92 was > 100 µM (inactive) throughout. The GI50 in the assay with UO-31, in the assay with A498, in the assay with OVCAR-3, in the assay on SK-MEL-5, with MCF7 and with MDA-MB-231 was > 100 µM (inactive) in each case. For the same compound, the GI50 with CCRF-CEM, with OVCAR-5, with SN12C, in the assay on SNB-75 and in the assay with KM12 was > 100 µM (inactive) each time.

As for `O=C(N/N=C\c1cccc2ccccc12)Nc1cccc2ccccc12`, the GI50 is 16.4 µM (inactive) in the assay with SNB-19; 26.9 µM (inactive) in the assay on PC-3; 10.6 µM (inactive) in the assay on SW-620; 22.9 µM (inactive) in the assay with LOX IMVI; 27.3 µM (inactive) in the assay on UACC-257; 25.9 µM (inactive) in the assay on IGROV-1. Moreover, the GI50 in the assay with UO-31 was 76.9 µM (inactive); in the assay with A498, 15.7 µM (inactive); in the assay with RXF 393, 14.1 µM (inactive); in the assay on SK-MEL-5, 13.1 µM (inactive); in the assay with MCF7, 7.8 µM (inactive); with MDA-MB-231 it was 16 µM (inactive). The GI50 is 18.2 µM (inactive) in the assay with CCRF-CEM; > 100 µM (inactive) in the assay with OVCAR-5; 41.9 µM (inactive) in the assay with SN12C; 6.61 µM (inactive) with SNB-75; 28.8 µM (inactive) in the assay with SK-MEL-2; 11 µM (inactive) in the assay on KM12.

Consider `Fc1cccc(F)c1C1SCc2nc3cc(Cl)ccc3n21` (stereo unspecified), for which the GI50 was 92.5 µM (inactive) in the assay on SNB-19; 34.4 µM (inactive) in the assay on PC-3; 38.7 µM (inactive) in the assay with SW-620; 18.5 µM (inactive) with LOX IMVI; 32.8 µM (inactive) in the assay on UACC-257; > 42.9 µM (inactive) in the assay with IGROV-1. Also, the GI50 was 36.6 µM (inactive) in the assay with HOP-92; 19.2 µM (inactive) in the assay with UO-31; 46 µM (inactive) in the assay with OVCAR-3; 48.8 µM (inactive) with RXF 393; 16 µM (inactive) in the assay with SK-MEL-5; 15 µM (inactive) with MCF7. Further, the GI50 in the assay with MDA-MB-231 is 55.1 µM (inactive); with CCRF-CEM, 25.6 µM (inactive); in the assay on OVCAR-5 it was 84.1 µM (inactive); in the assay with SN12C, 56.5 µM (inactive); in the assay on SNB-75, 40.1 µM (inactive); in the assay with SK-MEL-2, 30.6 µM (inactive). Besides, the GI50 with KM12 was 22.8 µM (inactive).

For the compound `C/C=C1/C[C@@H](C)[C@@](C)(O)C(=O)OCC2=CC[N+]3([O-])CC[C@@H](OC1=O)[C@@H]23` (stereo partly specified) [SENECIONINE N-OXIDE], the GI50 with SNB-19, in the assay on PC-3, in the assay with SW-620, in the assay on LOX IMVI, in the assay on UACC-257 and in the assay on IGROV-1 was > 100 µM (inactive) throughout. For the same compound, the GI50 with HOP-92, in the assay on UO-31, with A498, with OVCAR-3, with SK-MEL-5 and with MCF7 was > 100 µM (inactive) each time. Besides, the GI50 in the assay on MDA-MB-231, in the assay with CCRF-CEM, with OVCAR-5, in the assay on SN12C, in the assay with SNB-75 and in the assay on SK-MEL-2 was > 100 µM (inactive) each time. In addition, the GI50 in the assay with KM12 was > 100 µM (inactive).
